Measurements from patent US20180312493A1, “Antibiotic Compounds, Pharmaceutical Formulations Thereof And Methods And Uses Therefor” (Simon Fraser University, priority 2015, published 2018).
≈ marks a conversion by molar mass, not a printed value.

Tests used:
MRSA Pyk = molecular target: T1, MRSA Pyk (Staphylococcus aureus, UniProt Q6GG09); experiment: MRSA pyruvate kinase (PK) activity, continuous LDH-coupled assay; assay type: biochemical, methicillin resistant S. aureus (MRSA252)
T1 construct: made in house; host or cells: E. coli BL-21 (DE3)
T1 sequence (Q6GG09 whole entry): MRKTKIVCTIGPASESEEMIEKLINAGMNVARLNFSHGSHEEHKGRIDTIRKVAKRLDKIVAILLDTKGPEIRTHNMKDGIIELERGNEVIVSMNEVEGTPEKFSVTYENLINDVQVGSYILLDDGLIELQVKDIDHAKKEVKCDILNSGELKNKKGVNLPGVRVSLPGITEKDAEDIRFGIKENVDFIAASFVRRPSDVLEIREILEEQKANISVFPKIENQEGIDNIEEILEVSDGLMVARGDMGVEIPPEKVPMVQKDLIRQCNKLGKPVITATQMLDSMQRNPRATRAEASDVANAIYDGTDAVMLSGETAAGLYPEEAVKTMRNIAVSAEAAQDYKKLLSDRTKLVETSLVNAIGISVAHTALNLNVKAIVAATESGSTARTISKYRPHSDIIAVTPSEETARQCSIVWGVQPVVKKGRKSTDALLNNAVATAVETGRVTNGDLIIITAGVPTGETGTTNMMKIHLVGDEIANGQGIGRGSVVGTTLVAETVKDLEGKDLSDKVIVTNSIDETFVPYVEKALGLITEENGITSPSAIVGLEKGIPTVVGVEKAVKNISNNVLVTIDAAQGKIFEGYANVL
Description: Genomic DNA of MRSA strain Sanger 252 extracted using DNeasy Tissue Kit™ (Qiagen™) was used as a template to generate the His-tagged MRSA PK. Human cDNA from MCF-7 breast cancer cell line (courtesy of Dr. J Wong, BC Cancer Research Center (Vancouver, Canada)) was used as a template to generate the full-length human M2 PK enzyme. The following primer sets were used creating appropriate restriction sites (NdeI and XhoI sites underlined): For cloning of MRSA PK: M27F 5′-[…]-3′ and M27R 5′-[…]-3′, for cloning of human M2 PK isoform: hM2F 5′-[…]-3′ and hM2R 5′-[…]-3′. The resulting PCR fragments for each construct were cloned into the NdeI and XhoI unique sites of the bacterial expression vector pET-28a (+) (Novagen™). […] The sequence and the correct reading frame of all constructs were verified by sequencing. Human M1, R and L PK constructs in pET-28-a(+) vectors (courtesy of Dr. L. Cantley, Harvard Medical, School (Boston, USA)) were used to generate relevant recombinant His-tagged human PK isoforms.
MRSA and human constructs in pET-28a(+) were used to express relevant recombinant PK proteins in E. coli BL-21 (DE3). The proteins were expressed and purified using Ni-NTA agarose (Qiagen™) according to the manufacturer's protocol. Briefly, cells were grown to an absorbance of 0.4-0.5 at 600 nm in 2×YT medium, then induced with 0.1 mM IPTG for 3 h at 20° C. Cells were lysed by sonication on ice (3×10-s bursts with a 30-s recovery between bursts) in lysis buffer (0.2 mg/ml lysozyme, 50 mM Tris pH 7.5, 10 mM MgCl2, 200 mM NaCl, 100 mM KCl, 10% glycerol, 10 mM imidazole, 0.5% NP-40 and 1 mM DTT containing Complete™ protease inhibitor). Cell lysates were cleared by centrifugation (18,000×g in a Beckman™ JA-20 rotor) for 20 min at 4° C. and PK isoforms were purified by batch binding to Ni-NTA resin. The resins were then packed in columns (1×2 cm) and washed with 400 column volumes lysis buffer containing 30 mM imidazole. His-tagged PK isoforms were eluted with the same buffer containing 300 mM imidazole. The proteins were dialyzed overnight at 4° C. against 2000 volumes of ice-cold 30 mM Tris pH 7.5, 25 mM KCl, 5 mM MgCl2, 10% glycerol and 1 mM DTT to remove imidazole. All purification steps were done at 4° C.; enzymes were flash-frozen and stored at −70° C. Enzymatic activity of frozen protein preparations was stable for at least 10 months and up to 5 freeze/thaw cycles. Purity and physical integrity of proteins were assessed using SDS-polyacrylamide gel electrophoresis (SDS-PAGE) followed by coomassie blue staining. Protein concentration was estimated by Bradford assay (Bio-Rad Protein Assay™) using bovine serum albumin as a standard.
Candidate MRSA PK inhibitors were assayed for their ability to inhibit enzymatic activities of MRSA and human PKs. PK activity was determined using a continuous assay coupled to lactate dehydrogenase (LDH) in which the change in absorbance at 340 nm owing to oxidation of NADH was measured using a Benchmark Plus™ microplate spectrophotometer (Bio-Rad Laboratories, Hercules, Calif.). […] Reactions were initiated by the addition of 15 nM of one of the PK enzymes. PK activity proportional to the rate of change at 340 nm was expressed as specific activity (μmol/min/mg), which is defined as the amount of PK that catalyzes the formation of one micromole of either product per minute. Inhibitors were dissolved in DMSO with the final concentration of the solvent never exceeding 1% of the assay volume. IC50 values were calculated by curve fitting on a four-parameter dose-response model with variable slope using Graphpad Prism 5.0™ (GraphPad™ Software Inc., La Jolla, Calif.). In all studies, less than 10% of total PEP was exhausted during the reaction. Reactions were performed at 30° C. for up to 5 min. All values determined represent at least two measurements, in triplicate (Tables 1-6) or duplicate unless mentioned otherwise. […]

S. aureus (ATCC29213) = experiment: In vitro susceptibility, broth microdilution (MIC); assay type: cell-based; details: Staphylococcus aureus; S. aureus ATCC29213; 18-24 h, 37 C; read-out: Antimicrobial activity (MIC) S. aureus ATCC29213
Description: Epidemic methicillin resistant S. aureus (MRSA) strain sequenced at the Sanger Centre (MRSA252, NRS71) was obtained from NARSA (Network on Antimicrobial Resistance in S. aureus). Methicillin sensitive S. aureus (ATCC 29213 and 25923), methicillin resistant S. aureus (ATCC BAA-1762), and Salmonella typhimurium (ATCC BAA-185) were obtained from ATCC, The Global Bioresource Center. Acinetobacter baumannii (ATCC 19606 and ATCC 17978), Klebsiella pneumonia (C238), vancomycin resistant Enterococci #2 (2010A) (VRE#2), MRSA (USA400, MW2) and Pseudomonas aeruginosa (PA0-1) were obtained from the laboratory of Dr B. B. Finlay at the University of British Columbia (Vancouver, Canada).
The antimicrobial activities of PK inhibitor candidates were determined using the 96-well microtiter standard 2-fold serial broth microdilution method as described by CLSI (formerly NCCLS) with the various gram-positive and gram-negative bacteria species mentioned above. Bacteria from a single colony were grown, overnight in either BHI Broth (VRE), mueller hinton broth (S. aureus 29213; MRSA USA400, A. baumannii 19606, MRSA BAA-1762) or L-broth (P. aeruginosa, S. typhimurium, K. pneumonia and A. baumannii 17978). […] Culture plates were incubated for 18-24 h at 37° C., and optical density at 600 nm (OD600) was measured using a Benchmark Plus™ microplate spectrophotometer (Bio-Rad™). The absorbance control values for the series containing CAMHB and inhibitor were subtracted as background from the corresponding infected wells. Minimal inhibitory concentration (MIC) was defined as the lowest concentration of test compound leading to complete inhibition of cell growth in relation to compound-free control wells as determined by optical density. Vancomycin, methicillin and ciprofloxicin were used as reference compounds. All assays were run in triplicate or duplicate. Experiments were replicated at least twice to verify reproducibility using the above conditions.

| SMILES | IC50 (MRSA Pyk) | MIC (S. aureus (ATCC29213)) |
| --- | --- | --- |
| CN1CCN(CCNC(=O)c2c(/C=C/c3ccc(Cl)cc3)[nH]c3cc(Br)ccc23)CC1 [Compound 31, (E)-6-Bromo-2-(4-chlorostyryl)-N-(2-(4-methylpiperazin-1-yl)ethyl)-1 H-indole-3-carboxamide] | < 100 nM | 16 µg/mL (≈ 31.9 µM) |
| O=C(NC(CO)CO)c1c(/C=C/c2ccc(Cl)cc2)[nH]c2cc(Br)ccc12 [Compound 32, (E)-6-Bromo-2-(4-chlorostyryl)-N-(1,3-dihydroxypropan-2-yl)-1H-indole-3-carboxamide] | < 100 nM | > 64 µg/mL |
| CC(C)(C)OC(=O)N1CCN(CCNC(=O)c2c(/C=C/c3ccc(Cl)cc3)[nH]c3cc(Br)ccc23)CC1 [Compound 33, (E)-tert-Butyl 4-(2-(6-bromo-2-(4-chlorostyryl)-1H-indole-3-carboxamido)ethyl)piperazine-1-carboxylate] | > 1000 nM | > 64 µg/mL |
| CN(C)CCNC(=O)c1c(/C=C/c2cc(Cl)cc(Cl)c2)[nH]c2cc(Br)ccc12 [Compound 34, (E)-6-Bromo-2-(3,5-dichlorostyryl)-N-(2-(dimethylamino)ethyl)-1H-indole-3-carboxamide] | > 1000 nM | 16 µg/mL (≈ 33.2 µM) |
| COc1ccc(/C=C/c2[nH]c3cc(Br)ccc3c2C(=O)NCCO)nc1 [Compound 35, (E)-6-Bromo-N-(2-hydroxyethyl)-2-(2-(5-methoxypyridin-2-yl)vinyl)-1 H-indole-3-carboxamide] | 100 to 1000 nM | > 64 µg/mL |
| CN(C)C(=O)c1c(/C=C/c2ccc(Cl)nc2)[nH]c2cc(Br)ccc12 [Compound 36, (E)-6-bromo-2-(2-(6-chloropyridin-3-yl)vinyl)-N,N-dimethyl-1H-indole-3-carboxamide] | 100 to 1000 nM | > 64 µg/mL |
| O=C(O)CNC(=O)c1c(/C=C/c2ccc(Cl)cc2)[nH]c2cc(Br)ccc12 [Compound 38, (E)-2-(6-Bromo-2-(4-chlorostyryl)-1H-indole-3-carboxamido)acetic Acid] | < 100 nM | > 64 µg/mL |
| O=C(O)CCNC(=O)c1c(/C=C/c2ccc(Cl)cc2)[nH]c2cc(Br)ccc12 [Compound 39, (E)-3-(6-Bromo-2-(4-chlorostyryl)-1H-indole-3-carboxamido)propanoic Acid] | < 100 nM | > 64 µg/mL |
| O=C(NCCC1CCOCC1)c1c(/C=C/c2ccc(Cl)cc2)[nH]c2cc(Br)ccc12 [Compound 42, (E)-6-Bromo-2-(4-chlorostyryl)-N-(2-(tetrahydro-2H-pyran-4-yl)ethyl)-1H-indole-3-carboxamide] | 100 to 1000 nM | > 64 µg/mL |
| O=C(c1c(CCc2ccc(Cl)cc2)[nH]c2cc(Br)ccc12)N1CCOCC1 [Compound 47, (6-Bromo-2-(4-chlorophenethyl)-1H-indol-3-yl)(morpholino)methanone] | > 1000 nM | > 64 µg/mL |
| CNC(=O)c1c(CCc2ccc(Cl)cc2)[nH]c2cc(Br)ccc12 [Compound 49, 6-Bromo-2-(4-chlorophenethyl)-N-methyl-1H-indole-3-carboxamide] | > 1000 nM | > 64 µg/mL |
| CN(C)C(=O)c1c(CCc2ccc(Cl)cc2)[nH]c2cc(Br)ccc12 [Compound 50, 6-Bromo-2-(4-chlorophenethyl)-N,N-dimethyl-1H-indole-3-carboxamide] | > 1000 nM | > 64 µg/mL |
| CN(C)C(=O)c1c(CCc2ccc(Cl)cc2)[nH]c2ccccc12 [Compound 51, 2-(4-Chlorophenethyl)-N,N-dimethyl-1H-indole-3-carboxamide] | > 1000 nM | > 64 µg/mL |
| O=C(NCCN1CCNCC1)c1c(/C=C/c2ccc(Cl)cc2)[nH]c2cc(Br)ccc12 [Compound 52, (E)-6-Bromo-2-(4-chlorostyryl)-N-(2-(piperazin-1-yl)ethyl)-1H-indole-3-carboxamide] | < 100 nM | 16 µg/mL (≈ 32.8 µM) |
| O=C(NC1CCNCC1)c1c(/C=C/c2ccc(Cl)cc2)[nH]c2cc(Br)ccc12 [Compound 53, (E)-6-Bromo-2-(4-chlorostyryl)-N-(piperidin-4-yl)-1H-indole-3-carboxamide] | < 100 nM | 8 µg/mL (≈ 17.4 µM) |
